Assays:
Assay in all cases: relative viability (nuclei count vs DMSO), 5 days (fraction); higher = more cells survive
Doramapimod + Crizotinib = compound: Cc1ccc(-n2nc(C(C)(C)C)cc2NC(=O)Nc2ccc(OCCN3CCOCC3)c3ccccc23)cc1 [Doramapimod] + C[C@@H](Oc1cc(-c2cnn(C3CCNCC3)c2)cnc1N)c1c(Cl)ccc(F)c1Cl [Crizotinib] (partner 1 µM)
Summary of the method: (§1)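 Relative viability was taken as the ratio of nuclei in treated wells to nuclei in vehicle wells. Lung cancer cell lines in 1536-well plates received compounds by pin tool one day after seeding, either one drug alone or a fixed anchor-drug dose plus five library-drug doses (not always all listed) in √10 steps. Nuclei were counted on 4× images after 5 days of treatment, and values are medians of duplicate plates.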

RAF265 + Luminespib = compound: Cn1c(Nc2ccc(C(F)(F)F)cc2)nc2cc(Oc3ccnc(-c4ncc(C(F)(F)F)[nH]4)c3)ccc21 [RAF265] + CCNC(=O)c1noc(-c2cc(C(C)C)c(O)cc2O)c1-c1ccc(CN2CCOCC2)cc1 [Luminespib] (partner 0.01 µM)
Summary of the method: as §1

RAF265 + Crizotinib = compound: Cn1c(Nc2ccc(C(F)(F)F)cc2)nc2cc(Oc3ccnc(-c4ncc(C(F)(F)F)[nH]4)c3)ccc21 [RAF265] + C[C@@H](Oc1cc(-c2cnn(C3CCNCC3)c2)cnc1N)c1c(Cl)ccc(F)c1Cl [Crizotinib] (partner 1 µM)
Summary of the method: as §1

RAF265 + Pemetrexed = compound: Cn1c(Nc2ccc(C(F)(F)F)cc2)nc2cc(Oc3ccnc(-c4ncc(C(F)(F)F)[nH]4)c3)ccc21 [RAF265] + Nc1nc2[nH]cc(CCc3ccc(C(=O)N[C@@H](CCC(=O)O)C(=O)O)cc3)c2c(=O)[nH]1 [Pemetrexed] (partner 0.2 µM)
Summary of the method: as §1

Cell Line	relative viability (Doramapimod + Crizotinib; first compound 0.02 µM)	relative viability (Doramapimod + Crizotinib; first compound 0.06325 µM)	relative viability (Doramapimod + Crizotinib; first compound 0.2 µM)	relative viability (Doramapimod + Crizotinib; first compound 0.6325 µM)	relative viability (Doramapimod + Crizotinib; first compound 2 µM)	relative viability (RAF265 + Luminespib; first compound 0.01 µM)	relative viability (RAF265 + Luminespib; first compound 0.03162 µM)	relative viability (RAF265 + Luminespib; first compound 0.1 µM)	relative viability (RAF265 + Luminespib; first compound 0.3162 µM)	relative viability (RAF265 + Luminespib; first compound 1 µM)	relative viability (RAF265 + Crizotinib; first compound 0.01 µM)	relative viability (RAF265 + Crizotinib; first compound 0.03162 µM)	relative viability (RAF265 + Crizotinib; first compound 0.1 µM)	relative viability (RAF265 + Crizotinib; first compound 0.3162 µM)	relative viability (RAF265 + Crizotinib; first compound 1 µM)	relative viability (RAF265 + Pemetrexed; first compound 0.01 µM)	relative viability (RAF265 + Pemetrexed; first compound 0.03162 µM)	relative viability (RAF265 + Pemetrexed; first compound 0.1 µM)	relative viability (RAF265 + Pemetrexed; first compound 0.3162 µM)	relative viability (RAF265 + Pemetrexed; first compound 1 µM)
NCI-H23	0.685	0.435	0.488	0.539	0.595	0.22	0.225	0.221	0.212	0.221	0.623	0.502	0.473	0.388	0.248	0.633	0.573	0.53	0.351	0.366
NCI-H322M	0.899	0.949	1.02	1.02	0.924	0.868	0.722	0.545	0.305	0.304	0.897	0.839	0.866	0.281	0.282	0.587	0.605	0.472	0.357	0.335
NCI-H358	0.531	0.614	0.552	0.702	0.509	0.28	0.21	0.231	0.166	0.126	0.618	0.597	0.5	0.395	0.23	0.159	0.165	0.151	0.149	0.147
NCI-H441	0.96	0.512	0.67	0.741	0.549	0.368	0.29	0.321	0.263	0.327	0.779	0.656	0.715	0.73	0.473	0.267	0.251	0.258	0.223	0.224
NCI-H460	0.807	0.806	0.986	0.846	0.794	0.0219	0.0359	0.0291	0.0265	0.0248	0.972	0.904	0.743	–	0.881	0.0601	0.0679	0.0652	0.0628	0.0612
NCI-H520	0.614	0.767	0.709	0.803	0.52	0.211	0.232	0.235	0.208	0.215	0.632	0.762	0.774	0.771	0.607	0.637	0.536	0.629	0.507	0.36
NCI-H596	0.95	0.95	1.02	1.01	1	1.11	1.06	0.962	1.01	0.625	0.933	0.938	0.962	0.924	0.711	0.565	0.504	0.474	0.538	0.448
NCI-H647	1.1	1.03	0.992	0.96	0.833	0.256	0.103	0.171	0.153	0.0987	1.07	0.938	0.873	0.541	0.689	0.156	0.161	0.174	0.142	0.178
NCI-H650	0.77	0.661	0.826	0.783	0.668	0.803	0.785	0.834	0.497	0.339	0.886	0.722	0.684	0.808	0.317	0.96	0.76	0.734	0.573	0.505
NCI-H661	1.15	1.07	1	0.964	1.03	0.973	0.694	0.658	0.486	0.412	0.931	0.747	1.04	0.906	0.716	0.941	0.873	0.835	0.701	0.615
NCI-H838	0.847	0.807	0.872	1.01	0.799	0.284	0.226	0.344	0.309	0.288	0.807	0.855	0.989	0.911	0.718	0.269	0.269	0.265	0.299	0.237
NCI-H1355	0.981	1.08	1.11	1.04	1.03	0.705	0.726	0.747	0.411	0.246	1.11	1	1.02	0.766	0.337	1.05	1.02	0.972	0.96	0.714
NCI-H1437	0.897	0.943	0.868	1	0.915	1.02	1.07	1.08	1.23	1.11	0.902	0.808	0.998	1.05	0.768	0.346	0.296	0.326	0.285	0.278
NCI-H1563	0.977	0.917	0.859	0.893	0.612	0.56	0.511	0.589	0.529	0.485	0.88	0.916	0.849	0.801	0.824	0.943	0.886	0.77	0.779	0.699
NCI-H1650	0.969	1.02	1.13	1.04	1.02	0.176	0.208	0.192	0.205	0.216	1.03	0.83	1.15	0.877	0.913	0.336	0.362	0.431	0.324	0.369
NCI-H1651	0.847	0.871	0.875	0.89	0.851	1	0.812	0.971	0.807	0.714	0.829	0.912	0.904	0.88	0.81	0.587	0.567	0.431	0.494	0.532
NCI-H1666	1.21	0.907	0.959	1.08	0.935	1.11	1.01	1.1	1.05	0.977	1.11	1.08	1.06	0.971	0.651	0.787	0.782	0.904	0.888	0.754
NCI-H1734	0.665	0.639	0.589	0.659	0.495	0.227	0.189	0.178	0.17	0.17	0.662	0.47	0.751	0.492	0.319	0.386	0.43	0.469	0.507	0.417
NCI-H1755	0.886	0.905	0.788	0.768	0.833	0.627	0.45	0.351	0.262	0.398	0.837	0.757	0.813	0.685	0.476	0.771	0.361	0.503	0.519	0.497
NCI-H1792	0.762	1.06	1.07	1.04	0.971	0.46	0.528	0.379	0.317	0.148	1.01	0.989	0.977	0.839	0.419	0.808	0.517	0.539	0.0889	0.118
NCI-H1915	0.907	0.894	0.915	0.918	0.779	0.819	0.728	0.616	0.258	0.188	0.875	0.81	0.727	0.496	0.234	0.463	0.419	0.486	0.406	0.361
NCI-H1944	1.09	0.993	1.14	1.16	1.11	0.858	0.71	0.726	0.529	0.332	1.09	1.26	1.08	0.794	0.664	0.849	0.859	0.632	0.405	0.472
NCI-H1975	1.05	0.944	0.897	0.973	0.96	0.244	0.272	0.199	0.197	0.12	0.894	0.77	0.679	0.456	0.451	0.307	0.256	0.234	0.203	0.19
NCI-H1993	0.739	0.788	0.907	0.919	0.775	0.852	0.75	0.9	1.42	0.774	0.725	0.85	0.993	0.759	0.758	0.548	0.605	0.508	0.51	0.581
NCI-H2009	1.04	1.2	1.18	1.08	0.988	1.05	0.95	0.975	1.03	0.883	1.07	0.91	0.96	0.805	0.629	1.01	0.955	1.02	0.965	0.885
NCI-H2023	0.695	0.629	0.575	0.666	0.625	0.802	0.78	0.674	0.837	0.454	0.624	0.58	0.88	0.668	0.478	0.21	0.251	0.21	0.251	0.236

Source: the supplement of paper PMC10307832
